Laboratory results as given in patent US4205163A, “Tylosin derivatives” (Sanraku-Ocean Co., Ltd., priority 1977, dated 1980).
Values after ≈ are worked out from the molar mass of the structure shown.

Columns and labels:
Test in all cases: antimicrobial activity, broth dilution method
Type in all cases: cell-based
[1] = test system: Bacillus cereus ATCC 9634; conditions: Bacillus cereus, ATCC9634, Bacillus cereus ATCC 9634; broth dilution; read-out: minimum inhibitory concentration (MIC)
Protocol: (§1) Antimicrobial activity of the new antibiotics according to the present invention was measured on various pathogenic microorganisms by the broth dilution mehtod. Tab. […] The new antibiotics show a similar antimicrobial spectrum to that of tylosin as shown in Tab. 4. All the compounds have an excellent antimicrobial activity mainly on gram-positive bacteria. […] Test microorganisms with an asterisk mark (*) in Tab. 4 are all drug-resistant strains that were clinically isolated. More in detail, Staphylococcus aureus MS-8710 is resistant to tylosin, penicillin, tetracycline, erythromycin and leucomycin. Staphylococcus aureus MS-9931 is resistant to tylosin, penicillin, erythromycin, tetracycline, leucomycin, spiramycin and josamycin. And also Streptococcus piogenes is resistant to tylosin, erythromycin, oleandomycin and leucomycin.

Sarcina lutea ATCC 9341 = conditions: Micrococcus luteus, ATCC9341, Sarcina lutea ATCC 9341, read-out: minimum inhibitory concentration (MIC)
Protocol: as §1

[2] = test system: Staphylococcus aureus FDA-209P; conditions: Staphylococcus aureus, FDA209P, Staphylococcus aureus FDA-209P; broth dilution; read-out: minimum inhibitory concentration (MIC)
Protocol: as §1

[3] = test system: Staphylococcus aureus MS-8710; conditions: Staphylococcus aureus, MS8710, Staphylococcus aureus MS-8710, drug-resistant clinical isolate; read-out: minimum inhibitory concentration (MIC)
Protocol: as §1

[4] = test system: Staphylococcus aureus MS-9931; conditions: MS9931; Staphylococcus aureus MS-9931, drug-resistant clinical isolate; read-out: minimum inhibitory concentration (MIC)
Protocol: as §1

[5] = test system: Staphylococcus aureus MS-9937; conditions: MS9937; Staphylococcus aureus MS-9937, drug-resistant clinical isolate; read-out: minimum inhibitory concentration (MIC)
Protocol: as §1

[6] = test system: Staphylococcus aureus SMITH; conditions: Staphylococcus aureus, Staphylococcus aureus SMITH; broth dilution; read-out: minimum inhibitory concentration (MIC)
Protocol: as §1

[7] = test system: Streptococcus pyogenes MH-771; conditions: Streptococcus pyogenes, MH771, Streptococcus pyogenes MH-771, drug-resistant clinical isolate; read-out: minimum inhibitory concentration (MIC)
Protocol: as §1

| SMILES | MIC [1] | MIC (Sarcina lutea ATCC 9341) | MIC [2] | MIC [3] | MIC [4] | MIC [5] | MIC [6] | MIC [7] |
| --- | --- | --- | --- | --- | --- | --- | --- | --- |
| CCC(=O)OC1C(OC2C(CC=O)CC(C)C(=O)C=CC(C)=CC(COC3OC(C)C(O)C(OC)C3OC)C(CC)OC(=O)CC(O)C2C)OC(C)C(OC2CC(C)(O)C(O)C(C)O2)C1N(C)C (stereo not shown) [2'-propionyltylosin, reference compound] | 1.56 µg/mL (≈ 1.6 µM) | 0.39 µg/mL (≈ 0.401 µM) | 1.56 µg/mL (≈ 1.6 µM) | > 200 µg/mL | 200 µg/mL (≈ 206 µM) | 200 µg/mL (≈ 206 µM) | 1.56 µg/mL (≈ 1.6 µM) | > 200 µg/mL |
| CCC1OC(=O)CC(OC(C)=O)C(C)C(OC2OC(C)C(OC3CC(C)(O)C(O)C(C)O3)C(N(C)C)C2OC(C)=O)C(CC=O)CC(C)C(=O)C=CC(C)=CC1COC1OC(C)C(OC(=O)C(Cl)(Cl)Cl)C(OC)C1OC (stereo not shown) [Compound 4, 3,2'-diacetyl-4'"-trichloroacetyltylosin] | 1.56 µg/mL (≈ 1.36 µM) | 0.39 µg/mL (≈ 0.34 µM) | 1.56 µg/mL (≈ 1.36 µM) | 100 µg/mL (≈ 87.3 µM) | 100 µg/mL (≈ 87.3 µM) | 100 µg/mL (≈ 87.3 µM) | 1.56 µg/mL (≈ 1.36 µM) | 100 µg/mL (≈ 87.3 µM) |
| CCC1OC(=O)CC(O)C(C)C(OC2OC(C)C(OC3CC(C)(O)C(O)C(C)O3)C(N(C)C)C2OC(C)=O)C(CC=O)CC(C)C(=O)C=CC(C)=CC1COC1OC(C)C(OC(=O)C(Cl)(Cl)Cl)C(OC)C1OC (stereo not shown) [Compound 2, 2'-acetyl-4'"-trichloroacetyltylosin] | 1.56 µg/mL (≈ 1.41 µM) | 0.39 µg/mL (≈ 0.353 µM) | 1.56 µg/mL (≈ 1.41 µM) | 200 µg/mL (≈ 181 µM) | 100 µg/mL (≈ 90.6 µM) | 100 µg/mL (≈ 90.6 µM) | 1.56 µg/mL (≈ 1.41 µM) | 200 µg/mL (≈ 181 µM) |
| CCCCCCCCCC(=O)OC1C(C)OC(OC2C(C)OC(OC3C(CC=O)CC(C)C(=O)C=CC(C)=CC(COC4OC(C)C(O)C(OC)C4OC)C(CC)OC(=O)CC(O)C3C)C(O)C2N(C)C)CC1(C)O (stereo not shown) [Compound 10, 4"-n-capryl(or n-decanoyl)tylosin] | 1.56 µg/mL (≈ 1.46 µM) | 0.78 µg/mL (≈ 0.729 µM) | 1.56 µg/mL (≈ 1.46 µM) | 100 µg/mL (≈ 93.4 µM) | 50 µg/mL (≈ 46.7 µM) | 100 µg/mL (≈ 93.4 µM) | 1.56 µg/mL (≈ 1.46 µM) | 50 µg/mL (≈ 46.7 µM) |

The remaining lines, values ahead:

| MIC [1] | MIC (Sarcina lutea ATCC 9341) | MIC [2] | MIC [3] | MIC [4] | MIC [5] | MIC [6] | MIC [7] | SMILES |
| --- | --- | --- | --- | --- | --- | --- | --- | --- |
| 0.78 µg/mL (≈ 0.743 µM) | 0.19 µg/mL (≈ 0.181 µM) | 0.39 µg/mL (≈ 0.371 µM) | 25 µg/mL (≈ 23.8 µM) | 25 µg/mL (≈ 23.8 µM) | 25 µg/mL (≈ 23.8 µM) | 0.39 µg/mL (≈ 0.371 µM) | 6.25 µg/mL (≈ 5.95 µM) | CCC1OC(=O)CC(O)C(C)C(OC2OC(C)C(OC3CC(C)(O)C(OC(=O)COc4ccccc4)C(C)O3)C(N(C)C)C2O)C(CC=O)CC(C)C(=O)C=CC(C)=CC1COC1OC(C)C(O)C(OC)C1OC (stereo not shown) [Compound 44, 4"-phenoxyacetyltylosin] |
| 0.78 µg/mL (≈ 0.709 µM) | 0.19 µg/mL (≈ 0.173 µM) | 0.39 µg/mL (≈ 0.354 µM) | 12.5 µg/mL (≈ 11.4 µM) | 6.25 µg/mL (≈ 5.68 µM) | 6.25 µg/mL (≈ 5.68 µM) | 0.39 µg/mL (≈ 0.354 µM) | 3.13 µg/mL (≈ 2.84 µM) | CCC1OC(=O)CC(O)C(C)C(OC2OC(C)C(OC3CC(C)(O)C(OC(=O)CSc4ccc(Cl)cc4)C(C)O3)C(N(C)C)C2O)C(CC=O)CC(C)C(=O)C=CC(C)=CC1COC1OC(C)C(O)C(OC)C1OC (stereo not shown) [Compound 37, 4"-(4-chlorophenyl)thioacetyltylosin] |
| 0.39 µg/mL (≈ 0.361 µM) | 0.19 µg/mL (≈ 0.176 µM) | 0.78 µg/mL (≈ 0.722 µM) | 12.5 µg/mL (≈ 11.6 µM) | 12.5 µg/mL (≈ 11.6 µM) | 12.5 µg/mL (≈ 11.6 µM) | 0.39 µg/mL (≈ 0.361 µM) | 6.25 µg/mL (≈ 5.79 µM) | CCC1OC(=O)CC(O)C(C)C(OC2OC(C)C(OC3CC(C)(O)C(OC(=O)CCSc4ccccc4)C(C)O3)C(N(C)C)C2O)C(CC=O)CC(C)C(=O)C=CC(C)=CC1COC1OC(C)C(O)C(OC)C1OC (stereo not drawn) [Compound 39, 4"-β-phenylthiopropionyltylosin] |
| 0.78 µg/mL (≈ 0.769 µM) | 0.39 µg/mL (≈ 0.385 µM) | 0.78 µg/mL (≈ 0.769 µM) | 12.5 µg/mL (≈ 12.3 µM) | 12.5 µg/mL (≈ 12.3 µM) | 12.5 µg/mL (≈ 12.3 µM) | 0.78 µg/mL (≈ 0.769 µM) | 6.25 µg/mL (≈ 6.16 µM) | CCC1OC(=O)CC(O)C(C)C(OC2OC(C)C(OC3CC(C)(O)C(OC(=O)CCC(C)C)C(C)O3)C(N(C)C)C2O)C(CC=O)CC(C)C(=O)C=CC(C)=CC1COC1OC(C)C(O)C(OC)C1OC (stereo not shown) [Compound 11, 4"-iso-caproyl(or iso-hexanoyl)tylosin] |
